Test results from ChEMBL document CHEMBL3734649, “H2O-mediated isatin spiro-epoxide ring opening with NaCN: Synthesis of novel 3-tetrazolylmethyl-3-hydroxy-oxindole hybrids and their anticancer evaluation” (Eur J Med Chem, 2015).
Calls of active or inactive are those of the source. The rule behind the calls is not given here.

How the values were obtained:
[1] = Cell cycle arrest in human DU145 cells assessed as accumulation at S phase at 4 uM after 24 hrs by propidium iodide staining based flow cytometric analysis (reference value: 3.39%); format: functional; details: DU-145
[2] = test system: DU-145; test: Induction of apoptosis in human DU145 cells assessed as viable cells at 1.25 uM after 24 hrs by annexin V-FITC/propidium iodide staining based flow cytometric analysis (reference value: 89.63%); format: functional; details: DU-145, 24 h, read-out: Activity
[3] = test system: DU-145; test: Anticlonogenic activity against human DU145 cells assessed as inhibition of colony formation of cells incubated for 24 hrs followed by compound washout measured after 14 days by methylene-blue staining-based assay; format: functional, cell-based
[4] = Cell cycle arrest in human DU145 cells assessed as accumulation at G2/M phase at 4 uM after 24 hrs by propidium iodide staining based flow cytometric analysis (reference value: 16.66%); format: functional; details: DU-145
[5] = test system: DU-145; test: Induction of apoptosis in human DU145 cells assessed as condensed,pyknotic and fragmented nuclei at 1.25 to 5 uM after 48 hrs by DAPI staining based fluorescent microscopic analysis; format: functional, cell-based
[6] = test system: DU-145; test: Induction of apoptosis in human DU145 cells assessed as cell shrinkage at 1.25 to 5 uM after 48 hrs by acridine orange/ethidium bromide staining based fluorescent microscopic analysis; format: functional
[7] = Anticancer activity against human DU145 cells after 48 hrs by MTT assay; format: functional, cell-based; details: DU-145, 48 h
[8] = Cell cycle arrest in human DU145 cells assessed as accumulation at S phase at 2 uM after 24 hrs by propidium iodide staining based flow cytometric analysis (reference value: 3.39%); format: functional; details: DU-145
[9] = Cell cycle arrest in human DU145 cells assessed as accumulation at S phase at 8 uM after 24 hrs by propidium iodide staining based flow cytometric analysis (reference value: 3.39%); format: functional; details: DU-145
[10] = test system: DU-145; test: Induction of apoptosis in human DU145 cells assessed as membrane blebbing at 1.25 to 5 uM after 48 hrs by acridine orange/ethidium bromide staining based fluorescent microscopic analysis; format: functional, cell-based
[11] = Cell cycle arrest in human DU145 cells assessed as accumulation at G2/M phase at 2 uM after 24 hrs by propidium iodide staining based flow cytometric analysis (reference value: 16.66%); format: functional; details: DU-145
[12] = Selectivity index, ratio of IC50 for human RWPE1 cells to IC50 for human DU145 cells; format: functional
[13] = test system: DU-145; test: Induction of apoptosis in human DU145 cells assessed as dead cells at 2.5 uM after 24 hrs by annexin V-FITC/propidium iodide staining based flow cytometric analysis (reference value: 2.78%); format: functional
[14] = test system: DU-145; test: Induction of apoptosis in human DU145 cells assessed as cell shrinkage at 1.25 to 5 uM after 24 hrs by phase contrast microscopic analysis; format: functional, cell-based
[15] = test system: DU-145; test: Induction of apoptosis in human DU145 cells assessed as chromatin condensation at 1.25 to 5 uM after 48 hrs by acridine orange/ethidium bromide staining based fluorescent microscopic analysis; format: functional, cell-based
[16] = Cell cycle arrest in human DU145 cells assessed as accumulation at G1 phase at 2 uM after 24 hrs by propidium iodide staining based flow cytometric analysis (reference value: 78.18%); format: functional; details: DU-145
[17] = test system: DU-145; test: Induction of apoptosis in human DU145 cells assessed as apoptotic bodies at 1.25 to 5 uM after 48 hrs by acridine orange/ethidium bromide staining based fluorescent microscopic analysis; format: functional, cell-based
[18] = Anticancer activity against human PA1 cells after 48 hrs by MTT assay; format: functional, cell-based; details: PA-1, 48 h
[19] = test system: DU-145; test: Induction of DNA fragmentation in human DU145 cells assessed as DNA ladder formation at 5 uM after ethidium bromide staining based agarose gel electrophoresis; format: functional, cell-based
[20] = test system: DU-145; test: Induction of apoptosis in human DU145 cells assessed as late apoptotic cells at 1.25 uM after 24 hrs by annexin V-FITC/propidium iodide staining based flow cytometric analysis (reference value: 4.48%); format: functional
[21] = test system: DU-145; test: Induction of DNA fragmentation in human DU145 cells assessed as smear formation at 1.25 to 2.5 uM after ethidium bromide staining based agarose gel electrophoresis; format: functional, cell-based
[22] = test system: DU-145; test: Induction of apoptosis in human DU145 cells assessed as viable cells at 5 uM after 24 hrs by annexin V-FITC/propidium iodide staining based flow cytometric analysis (reference value: 89.63%); format: functional; details: DU-145, 24 h, read-out: Activity
[23] = Cytotoxicity against human RWPE1 cells after 48 hrs by MTT assay; format: cell-based; details: RWPE-1, 48 h
[24] = test system: DU-145; test: Induction of apoptosis in human DU145 cells assessed as early apoptotic cells at 5 uM after 24 hrs by annexin V-FITC/propidium iodide staining based flow cytometric analysis (reference value: 3.11%); format: functional
[25] = test system: DU-145; test: Induction of apoptosis in human DU145 cells assessed as reduction in viable cells at 1.25 to 5 uM after 24 hrs by phase contrast microscopic analysis; format: functional, cell-based
[26] = test system: DU-145; test: Induction of apoptosis in human DU145 cells after 24 hrs by annexin V-FITC/propidium iodide staining based flow cytometric analysis; format: functional, cell-based
[27] = test system: DU-145; test: Induction of apoptosis in human DU145 cells assessed as late apoptotic cells at 5 uM after 24 hrs by annexin V-FITC/propidium iodide staining based flow cytometric analysis (reference value: 4.48%); format: functional
[28] = test system: DU-145; test: Induction of apoptosis in human DU145 cells assessed as […] deformation at 1.25 to 5 uM after 24 hrs by phase contrast microscopic analysis; format: functional, cell-based
[29] = Anticancer activity against human PC3 cells after 48 hrs by MTT assay; format: functional, cell-based; details: PC-3, 48 h
[30] = test system: DU-145; test: Induction of apoptosis in human DU145 cells assessed as apoptotic bodies at 1.25 to 5 uM after 24 hrs by phase contrast microscopic analysis; format: functional, cell-based
[31] = test system: DU-145; test: Induction of apoptosis in human DU145 cells assessed as early apoptotic cells at 2.5 uM after 24 hrs by annexin V-FITC/propidium iodide staining based flow cytometric analysis (reference value: 3.11%); format: functional
[32] = Anticancer activity against human BT549 cells after 48 hrs by MTT assay; format: functional, cell-based; details: BT-549, 48 h
[33] = Cell cycle arrest in human DU145 cells assessed as accumulation at G1 phase at 4 uM after 24 hrs by propidium iodide staining based flow cytometric analysis (reference value: 78.18%); format: functional; details: DU-145
[34] = test system: DU-145; test: Induction of apoptosis in human DU145 cells assessed as early apoptotic cells at 1.25 uM after 24 hrs by annexin V-FITC/propidium iodide staining based flow cytometric analysis (reference value: 3.11%); format: functional
[35] = test system: DU-145; test: Induction of apoptosis in human DU145 cells assessed as viable cells at 2.5 uM after 24 hrs by annexin V-FITC/propidium iodide staining based flow cytometric analysis (reference value: 89.63%); format: functional; details: DU-145, 24 h, read-out: Activity
[36] = Cell cycle arrest in human DU145 cells assessed as accumulation at G1 phase at 8 uM after 24 hrs by propidium iodide staining based flow cytometric analysis (reference value: 78.18%); format: functional; details: DU-145
[37] = test system: MDA-MB-231; test: Anticancer activity against human MDA-MB-231 cells after 48 hrs by MTT assay; format: functional, cell-based; details: MDA-MB-231, 48 h
[38] = test system: DU-145; test: Induction of apoptosis in human DU145 cells assessed as loss of mitochondrial membrane potential at 5 uM after 24 hrs by rhodamine 123 based spectrofluorometric analysis relative to control; format: functional
[39] = test system: DU-145; test: Induction of apoptosis in human DU145 cells assessed as dead cells at 1.25 uM after 24 hrs by annexin V-FITC/propidium iodide staining based flow cytometric analysis (reference value: 2.78%); format: functional
[40] = test system: DU-145; test: Induction of apoptosis in human DU145 cells assessed as dead cells at 5 uM after 24 hrs by annexin V-FITC/propidium iodide staining based flow cytometric analysis (reference value: 2.78%); format: functional
[41] = Cell cycle arrest in human DU145 cells assessed as accumulation at G2/M phase at 8 uM after 24 hrs by propidium iodide staining based flow cytometric analysis (reference value: 16.66%); format: functional; details: DU-145
[42] = test system: DU-145; test: Induction of apoptosis in human DU145 cells assessed as late apoptotic cells at 2.5 uM after 24 hrs by annexin V-FITC/propidium iodide staining based flow cytometric analysis (reference value: 4.48%); format: functional
[43] = test system: DU-145; test: Induction of apoptosis in human DU145 cells assessed as ROS production after 24 hrs by carboxy-DCFDA based fluorescence microscopic analysis; format: functional, cell-based

## Cc1ccc2c(c1)C(O)(Cc1nnn[nH]1)C(=O)N2Cc1ccccc1 (stereo not drawn)
[1]
  Activity: 6.71%
[2]
  viability at 1.25 µM: 68.6%
[3]
  Activity: Dose-dependent effect
[4]
  Activity: 52.8%
[5]
  Activity: Active
[6]
  Activity: Active
[7]
  IC50: 4.26 µM
[8]
  Activity: 12.3%
[9]
  Activity: 7.34%
[10]
  Activity: Active
[11]
  Activity: 39.8%
[12]
  Ratio IC50: 5
[13]
  Activity: 3.2%
[14]
  Activity: Active
[15]
  Activity: Active
[16]
  Activity: 44.8%
[17]
  Activity: Active
[18]
  IC50: 33.9 µM
[19]
  Activity: Active
[20]
  Activity: 8.51%
[21]
  Activity: Active
[22]
  viability at 5 µM: 41.3%
[23]
  IC50: 20.9 µM
[24]
  Activity: 44.77%
[25]
  Activity: Active
[26]
  Activity: Dose-dependent effect
[27]
  Activity: 12.59%
[28]
  Activity: Active
[29]
  IC50: 11.7 µM
[30]
  Activity: Active
[31]
  Activity: 27%
[32]
  IC50: 91.5 µM
[33]
  Activity: 36.3%
[34]
  Activity: 16.63%
[35]
  viability at 2.5 µM: 58.1%
[36]
  Activity: 17%
[37]
  IC50: > 100 µM
[38]
  Activity: 45.4%
[39]
  Activity: 6.27%
[40]
  Activity: 1.31%
[41]
  Activity: 72.8%
[42]
  Activity: 11.6%
[43]
  Activity: Dose-dependent effect
